Broadly, the EC50 is the concentration needed to bring the measured effect to its halfway point. As usually defined, the AC50 is the concentration at which the activity in the assay is half-maximal. By CC50 is commonly meant the concentration that lowers cell viability or growth by half. The term IC50 denotes the concentration that inhibits the measured activity by half.

Structures are written as SMILES. The source made the active and inactive calls.

Data on 6 compounds can be found in ChEMBL document CHEMBL1201862, “PubChem BioAssay data set” (2004).

In one experiment the target is Kallikrein-7 (Homo sapiens, UniProt P49862). Briefly: Fluorescence Intensity-based biochemical primary high throughput dose response assay to identify activators of kallikrein-7 (K7) zymogen.
Experiment [1] can be described thus: growth inhibition of yeast DHODH-expressing 3D7 parasites – SYBR Green, dry powder samples, dose response (AID 1159570).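 Further: parasite growth measured after 72 hours of compound exposure.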 The class given is functional, cell-based.
Experiment [2] in a line: toxicity to human HepG2 hepatoma cells – cell-based, plate reader, dry powder samples, cytotoxicity control, dose response (AID 1159569).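 Further: inhibitor potency with signal falling toward the positive control level.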 The class given is functional.
Experiment [3] can be described thus: P. falciparum Dd2 growth inhibitors, dose response, SYBR Green, cherry-picked samples (AID 1159567). The class given is functional, cell-based.
Experiment [4] in a line: Dd2 malaria parasite growth inhibition potency – SYBR Green, dry powder samples, dose response (AID 1159566).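 Further: potency for growth inhibition with lower SYBR green DNA signal.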 The class given is functional, cell-based.
Experiment [5] can be described thus: toxicity to human hepatoma HepG2 cells – cell-based, cherry-picked samples, cytotoxicity control, dose response (AID 1159577). The class given is functional.
Experiment [6] in a line: growth inhibition of PfATP4-mutant resistant parasites – NITD609-resistant line, SYBR Green, dry powder, dose response (AID 1159571).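 Further: parasites synchronized at ring stage by sorbitol before testing.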 The class given is functional, cell-based.
Experiment [7] is described as follows: inhibitors of TRPM1-promoter reporter in SK-MEL-5 – cell-based, luciferase, dry powder, set 9, MITF inhibitor project, dose response (AID 651588). The class given is functional.
A short description of experiment [8]: cytotoxicity in MITF-independent A375 cells – cell-based, CellTiter-Glo luminescence, dry powder, set 4, counter-screen for MITF inhibitor project, dose response (AID 624364).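 Further: A375 melanoma cells are MITF independent so this is a counter screen.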 As to conditions: A-375. It counts as functional. In general terms: Cellular ATP, detected with luciferase, serves as a proxy for viable cell number.
Experiment [9] is described as follows: viability loss in MITF-independent A375 cells – cell-based, CellTiter-Glo luminescence, dry powder, set 7, counter-screen for MITF inhibitor project, dose response (AID 624490). The note with it: A-375. The class given is functional.
A short description of experiment [10]: MITF Orthogonal Assay: MALME3 CTG Assay Measured in Cell-Based System Using Plate Reader - 2084-04_Inhibitor_Dose_DryPowder_Activity_Set6. The class given is functional. As to conditions: MALME-3.
Experiment [11] is described as follows: growth inhibition of SK-MEL-5 melanoma cells – cell-based, CellTiter-Glo luminescence, dry powder, set 8, orthogonal assay for MITF inhibitor project, dose response (AID 651586). The class given is functional.
Experiment [12] is described as follows: growth inhibition of MALME3 cells – cell-based, CellTiter-Glo luminescence, dry powder, set 5, orthogonal assay for MITF inhibitor project, dose response (AID 651584). As to conditions: MALME-3. It counts as functional.
Experiment [13] in a line: cytotoxicity in melanoma parental cells – cell-based, CellTiter-Glo, dry powder, set 6, MITF inhibitor project, dose response (AID 624429). As to conditions: SK-MEL-5. The class given is functional.
Experiment [14] is described as follows: MITF Orthogonal Assay: SK-MEL-5 CTG Assay Measured in Cell-Based System Using Plate Reader - 2084-02_Inhibitor_Dose_DryPowder_Activity_Set5. The class given is functional.
A short description of experiment [15]: viability loss in MITF-independent A375 cells – cell-based, CellTiter-Glo luminescence, dry powder, set 6, counter-screen for MITF inhibitor project, dose response (AID 624488). As to conditions: A-375. The class given is functional.
Experiment [16] is described as follows: cytotoxicity in MITF-independent A375 cells – cell-based, CellTiter-Glo luminescence, dry powder, set 9, counter-screen for MITF modulator project, dose response (AID 651591). It counts as functional. As to conditions: A-375.
Experiment [17] in a line: MITF Measured in Cell-Based System Using Plate Reader - 2084-01_Inhibitor_Dose_DryPowder_Activity_Set6. It counts as functional.
A short description of experiment [18]: viability loss in MITF-independent A375 cells – cell-based, CellTiter-Glo luminescence, dry powder, set 2, counter-screen for MITF inhibitor project, dose response (AID 624489).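 Further: actives are compounds lowering A375 viability meaning general cytotoxicity.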 The class given is functional. As to conditions: A-375.
Experiment [19] is described as follows: MITF Measured in Cell-Based System Using Plate Reader - 2084-01_Inhibitor_Dose_DryPowder_Activity_Set7. It counts as functional.
Experiment [20] in a line: viability loss in Vero cells – cytotoxicity control for Vif-APOBEC3G degradation inhibitor project, dose response (AID 1117358). The note with it: Vero. It counts as functional.
The target of experiment [21] is Beta-adrenergic receptor kinase 1 (Homo sapiens, UniProt P25098). Briefly: aptamer displacement from bead-bound GRK2 – biochemical, cherry pick 1, bead flow cytometry, dose response (AID 504500). On the technique in general: A flow cytometer gives signals particle by particle.
Experiment [22] has as its target Glutathione-S-transferase (Schistosoma japonicum, UniProt Q26513). Briefly: GST-antibody interaction or FRET quenching – biochemical, TR-FRET, artefact control for Vif-APOBEC3G degradation inhibitor project, dose response (AID 1117362). It counts as functional.
In experiment [23] the target is Intestinal-type alkaline phosphatase (Mus musculus, UniProt P24822). Briefly: PubChem AID 488785. The class given is functional.
Experiment [24] deals with T1, Alkaline phosphatase, tissue-nonspecific isozyme (Homo sapiens, UniProt P05186).
T1 sequence (P05186 whole entry): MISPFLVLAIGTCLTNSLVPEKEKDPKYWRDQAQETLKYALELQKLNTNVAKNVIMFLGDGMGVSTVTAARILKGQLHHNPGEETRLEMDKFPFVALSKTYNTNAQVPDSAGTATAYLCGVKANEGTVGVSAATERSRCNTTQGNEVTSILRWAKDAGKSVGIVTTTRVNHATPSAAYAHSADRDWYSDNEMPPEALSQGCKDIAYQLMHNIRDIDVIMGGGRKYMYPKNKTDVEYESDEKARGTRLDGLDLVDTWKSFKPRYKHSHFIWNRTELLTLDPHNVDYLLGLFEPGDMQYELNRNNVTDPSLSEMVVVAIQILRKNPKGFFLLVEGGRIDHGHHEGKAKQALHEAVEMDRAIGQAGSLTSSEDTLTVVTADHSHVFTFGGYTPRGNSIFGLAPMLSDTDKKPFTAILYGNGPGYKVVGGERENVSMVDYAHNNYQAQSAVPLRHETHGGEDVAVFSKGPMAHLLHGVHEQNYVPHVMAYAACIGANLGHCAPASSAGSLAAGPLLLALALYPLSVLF
Briefly: TNAP enzyme inhibition by screening hits, dose response, selectivity assay for mouse IAP inhibitor project, biochemical, human TNAP, uHTS hits (AID 488906). The class given is functional.

For experiment [25], the target named is Lysine-specific demethylase 4C (Homo sapiens, UniProt Q9H3R0). Kind of experiment: inhibition of JMJD2C H3K9me3 demethylation – biochemical, DELFIA europium, cherry-picked samples, dose response (AID 488835). It counts as functional.
For experiment [26], the target named is Intestinal-type alkaline phosphatase (Homo sapiens, UniProt P09923). Kind of experiment: inhibition of human intestinal alkaline phosphatase – biochemical, dose response (AID 488876). The class given is functional.
Another experiment deals with Cytochrome P450 2C19 (Homo sapiens, UniProt P33261). Kind of experiment: Cytochrome panel assay with activity outcomes. Panel member name: p450-cyp2c19 Compounds with AC50 equal or less than 10 uM are considered active. It counts as functional. As to conditions: read-out: AC50.
The nature of experiment [27]: CellTiter-Glo luminescence survival assay, SW480 colon tumor line, concentration-response curve, half-maximal inhibitory concentration (AID 1117338). The class given is functional.
Experiment [28] is described as follows: RKO cell viability reduction, dose response, CellTiter-Glo luminescence (AID 1117322). The class given is functional.
Experiment [29] in a line: cytotoxicity toward HCT116 cells – cell-based, CellTiter-Glo luminescence, IC50, dose response (AID 1117332). It counts as functional. The note with it: HCT-116.
Experiment [30] in a line: SNU-C1 cell viability reduction, dose response, CellTiter-Glo luminescence (AID 1117323). The class given is functional, cell-based.
Experiment [31] can be described thus: cytotoxicity toward Colo320 cells – cell-based, CellTiter-Glo luminescence, IC50, dose response (AID 1117334). The class given is functional. The note with it: COLO 320.
Experiment [32] can be described thus: cytotoxicity toward HT-29 cells – cell-based, CellTiter-Glo luminescence, IC50, dose response (AID 1117330). It counts as functional.
A short description of experiment [33]: Reduced DLD-1 viability, concentration-response, CellTiter-Glo luminescence (AID 1117352). It counts as functional.
A short description of experiment [34]: HCT116 cell viability decrease, GSK3B pretreatment – CellTiter-Glo, IC50, dose response (AID 1117339). The class given is functional. The note with it: HCT-116.
Another experiment concerns the target Cytochrome P450 2D6 (Homo sapiens, UniProt P10635).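 Further: CYP2D6 member of a cytochrome P450 panel assay.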

Lysine-specific demethylase 4C, sequence (Q9H3R0 whole entry): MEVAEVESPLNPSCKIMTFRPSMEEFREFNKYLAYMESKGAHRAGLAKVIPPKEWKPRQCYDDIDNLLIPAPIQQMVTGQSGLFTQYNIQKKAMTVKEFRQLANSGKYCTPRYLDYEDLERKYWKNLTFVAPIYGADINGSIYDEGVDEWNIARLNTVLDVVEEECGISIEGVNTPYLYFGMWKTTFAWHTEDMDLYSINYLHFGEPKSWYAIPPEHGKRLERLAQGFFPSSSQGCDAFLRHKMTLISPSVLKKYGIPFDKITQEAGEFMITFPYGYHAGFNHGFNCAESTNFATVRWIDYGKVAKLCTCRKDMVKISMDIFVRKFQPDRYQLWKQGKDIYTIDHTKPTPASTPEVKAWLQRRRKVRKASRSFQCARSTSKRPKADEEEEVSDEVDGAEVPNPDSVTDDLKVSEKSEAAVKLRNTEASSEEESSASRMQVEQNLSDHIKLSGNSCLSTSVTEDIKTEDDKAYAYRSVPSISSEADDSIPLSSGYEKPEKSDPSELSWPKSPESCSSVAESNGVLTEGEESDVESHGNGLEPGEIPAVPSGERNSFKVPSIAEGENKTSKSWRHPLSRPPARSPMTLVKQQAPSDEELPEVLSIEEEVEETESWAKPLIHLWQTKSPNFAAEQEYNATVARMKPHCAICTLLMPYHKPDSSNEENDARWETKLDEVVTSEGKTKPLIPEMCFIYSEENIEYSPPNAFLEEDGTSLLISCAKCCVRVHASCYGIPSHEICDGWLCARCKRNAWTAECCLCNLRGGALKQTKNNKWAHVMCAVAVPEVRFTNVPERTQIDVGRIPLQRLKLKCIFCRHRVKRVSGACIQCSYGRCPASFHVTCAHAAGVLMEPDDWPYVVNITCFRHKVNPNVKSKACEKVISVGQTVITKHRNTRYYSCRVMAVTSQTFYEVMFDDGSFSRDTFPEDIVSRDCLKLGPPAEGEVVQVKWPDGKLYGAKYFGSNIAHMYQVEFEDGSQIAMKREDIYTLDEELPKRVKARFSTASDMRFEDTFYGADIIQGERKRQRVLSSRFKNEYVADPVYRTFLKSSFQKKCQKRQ
Intestinal-type alkaline phosphatase (Homo sapiens, UniProt P09923), sequence (P09923 whole entry): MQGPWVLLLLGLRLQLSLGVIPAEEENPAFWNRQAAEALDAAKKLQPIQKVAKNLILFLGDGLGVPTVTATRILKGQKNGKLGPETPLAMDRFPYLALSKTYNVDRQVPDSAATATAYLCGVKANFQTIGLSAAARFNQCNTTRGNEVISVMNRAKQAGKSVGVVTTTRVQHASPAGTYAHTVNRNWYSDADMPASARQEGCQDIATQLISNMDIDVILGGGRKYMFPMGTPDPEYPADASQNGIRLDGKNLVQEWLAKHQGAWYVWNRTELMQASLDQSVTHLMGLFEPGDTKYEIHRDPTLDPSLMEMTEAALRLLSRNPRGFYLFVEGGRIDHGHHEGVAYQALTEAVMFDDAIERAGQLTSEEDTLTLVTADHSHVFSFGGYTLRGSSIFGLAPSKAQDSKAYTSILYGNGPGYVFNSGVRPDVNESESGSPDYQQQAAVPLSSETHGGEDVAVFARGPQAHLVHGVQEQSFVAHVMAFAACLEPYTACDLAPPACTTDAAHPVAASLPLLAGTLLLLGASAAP
Beta-adrenergic receptor kinase 1, sequence (P25098 whole entry): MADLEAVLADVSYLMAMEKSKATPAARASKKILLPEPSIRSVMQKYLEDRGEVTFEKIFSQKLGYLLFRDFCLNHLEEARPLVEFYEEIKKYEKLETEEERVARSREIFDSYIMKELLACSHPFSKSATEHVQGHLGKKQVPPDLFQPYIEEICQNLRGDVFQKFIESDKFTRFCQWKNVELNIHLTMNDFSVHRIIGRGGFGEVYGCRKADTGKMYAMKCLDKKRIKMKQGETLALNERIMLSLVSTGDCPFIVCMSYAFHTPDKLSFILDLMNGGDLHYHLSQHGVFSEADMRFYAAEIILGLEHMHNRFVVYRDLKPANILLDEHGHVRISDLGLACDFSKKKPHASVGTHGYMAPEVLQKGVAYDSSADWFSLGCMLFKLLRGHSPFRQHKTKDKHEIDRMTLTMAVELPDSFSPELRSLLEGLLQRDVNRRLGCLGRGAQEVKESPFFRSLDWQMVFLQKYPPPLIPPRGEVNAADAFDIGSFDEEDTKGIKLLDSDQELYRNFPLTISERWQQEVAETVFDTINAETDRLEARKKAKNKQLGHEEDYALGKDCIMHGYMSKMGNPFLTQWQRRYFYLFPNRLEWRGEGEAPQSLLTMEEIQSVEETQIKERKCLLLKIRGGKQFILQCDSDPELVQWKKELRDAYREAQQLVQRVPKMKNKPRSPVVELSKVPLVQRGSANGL
Cytochrome P450 2C19, sequence (P33261 whole entry): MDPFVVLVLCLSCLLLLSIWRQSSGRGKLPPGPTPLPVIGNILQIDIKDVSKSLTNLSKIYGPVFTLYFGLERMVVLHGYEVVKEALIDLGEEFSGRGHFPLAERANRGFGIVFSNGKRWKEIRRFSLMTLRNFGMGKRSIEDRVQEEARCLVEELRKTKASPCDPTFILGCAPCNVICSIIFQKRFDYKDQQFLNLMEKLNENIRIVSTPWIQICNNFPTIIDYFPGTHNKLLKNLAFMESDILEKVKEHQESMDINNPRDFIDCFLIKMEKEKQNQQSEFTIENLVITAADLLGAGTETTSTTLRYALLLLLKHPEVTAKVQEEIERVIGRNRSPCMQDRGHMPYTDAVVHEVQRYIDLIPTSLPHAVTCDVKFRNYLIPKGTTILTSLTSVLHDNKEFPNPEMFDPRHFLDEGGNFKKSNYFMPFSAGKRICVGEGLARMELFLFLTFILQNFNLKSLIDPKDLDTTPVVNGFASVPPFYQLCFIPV
Cytochrome P450 2D6, sequence (P10635 whole entry): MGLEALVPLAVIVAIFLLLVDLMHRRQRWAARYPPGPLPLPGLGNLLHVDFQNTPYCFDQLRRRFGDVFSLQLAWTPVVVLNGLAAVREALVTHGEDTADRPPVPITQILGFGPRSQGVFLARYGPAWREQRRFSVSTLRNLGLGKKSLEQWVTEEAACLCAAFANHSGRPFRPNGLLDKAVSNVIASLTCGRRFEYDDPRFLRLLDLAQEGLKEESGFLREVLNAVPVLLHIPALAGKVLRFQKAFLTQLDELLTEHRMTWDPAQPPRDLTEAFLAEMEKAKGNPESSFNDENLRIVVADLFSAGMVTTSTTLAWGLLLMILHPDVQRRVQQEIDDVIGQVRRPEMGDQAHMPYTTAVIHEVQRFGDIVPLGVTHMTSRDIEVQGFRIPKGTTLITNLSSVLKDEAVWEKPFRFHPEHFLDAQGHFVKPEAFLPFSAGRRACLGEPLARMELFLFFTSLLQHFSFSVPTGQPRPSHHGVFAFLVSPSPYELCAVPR
Intestinal-type alkaline phosphatase (Mus musculus, UniProt P24822), sequence (P24822 whole entry): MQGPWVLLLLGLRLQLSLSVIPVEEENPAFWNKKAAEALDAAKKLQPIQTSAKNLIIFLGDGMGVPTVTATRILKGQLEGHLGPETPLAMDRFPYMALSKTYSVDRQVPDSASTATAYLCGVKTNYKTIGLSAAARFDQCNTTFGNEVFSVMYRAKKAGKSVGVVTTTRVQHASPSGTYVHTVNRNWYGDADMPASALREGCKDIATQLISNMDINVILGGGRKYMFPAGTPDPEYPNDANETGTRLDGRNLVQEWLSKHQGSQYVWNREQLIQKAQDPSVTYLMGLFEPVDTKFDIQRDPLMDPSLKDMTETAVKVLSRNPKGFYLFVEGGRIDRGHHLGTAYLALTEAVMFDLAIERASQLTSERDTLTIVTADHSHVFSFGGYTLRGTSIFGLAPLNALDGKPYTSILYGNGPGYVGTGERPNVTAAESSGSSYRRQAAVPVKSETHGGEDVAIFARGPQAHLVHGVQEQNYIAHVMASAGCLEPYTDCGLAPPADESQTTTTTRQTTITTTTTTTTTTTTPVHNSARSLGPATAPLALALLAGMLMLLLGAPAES
Kallikrein-7, sequence (P49862 whole entry): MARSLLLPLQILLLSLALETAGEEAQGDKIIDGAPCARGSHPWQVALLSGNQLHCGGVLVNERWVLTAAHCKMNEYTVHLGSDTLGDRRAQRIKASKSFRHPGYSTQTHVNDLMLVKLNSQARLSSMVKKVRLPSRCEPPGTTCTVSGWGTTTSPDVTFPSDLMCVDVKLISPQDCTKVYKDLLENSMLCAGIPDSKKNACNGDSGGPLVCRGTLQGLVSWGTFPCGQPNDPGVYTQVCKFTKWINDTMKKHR
Glutathione-S-transferase, sequence (Q26513 whole entry): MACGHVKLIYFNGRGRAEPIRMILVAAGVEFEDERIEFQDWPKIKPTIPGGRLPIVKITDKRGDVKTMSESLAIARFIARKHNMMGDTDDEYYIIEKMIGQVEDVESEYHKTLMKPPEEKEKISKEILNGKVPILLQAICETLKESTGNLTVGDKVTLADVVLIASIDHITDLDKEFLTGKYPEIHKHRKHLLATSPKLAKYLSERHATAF

Regarding `CCN1CCN(C(=O)COc2ccc3c(c2)C(=O)CC2(CCN(C(C)=O)CC2)O3)CC1`, the EC50 at Kallikrein-7 is > 2.58 µM (active).
Regarding `C[C@H]1CN([C@@H](C)CO)C(=O)c2c(c3ccccc3n2C)-c2ccccc2CO[C@H]1CN(C)Cc1ccc(-c2ccccc2)cc1`, the AC50 is 3.14 µM (active) in experiment [1]; 28.9 µM (active) in experiment [2]; 2.64 µM (active) in experiment [3]; 1.54 µM (active) in experiment [4]; > 39 µM (inactive) in experiment [5]; 2.1 µM (active) in experiment [6].
On to `CCN1CCN(C2=C(NC(=O)c3ccccc3)C(=O)c3ccccc3C2=O)CC1`, for which the half-maximal activity concentration (AC50) in experiment [7] was 1.72 µM (active); in experiment [8] it was 26.7 µM (active); in experiment [9], 10.1 µM (active); in [10], 5.64 µM (active); in [11] it was 9.73 µM (active); in [12] it was 5.64 µM (active). Further, the AC50 in experiment [13] is 9.53 µM (active); in experiment [14] it was 6.95 µM (active); in experiment [15], 15.8 µM (active); in experiment [16], 27.3 µM (active); in experiment [17] it was 0.523 µM (active); in [18] it was 11.2 µM (active). In [19], the AC50 was 0.729 µM (active).
As for `O=C(NCCc1ccc(Cl)cc1)C1CCN(C(=O)c2sccc2-n2cccc2)CC1`, the CC50 in [20] is > 40 µM (active).
Turning to `C=C(C)C(=O)Nc1cccc(C2=NOC3(C2)C[C@@H](C(N)=O)N(C(=O)c2cc([N+](=O)[O-])cc([N+](=O)[O-])c2)C3)c1` (some centres not stated), the EC50 in experiment [21] is 10.6 µM (inactive). Further, the IC50 in [22] was > 100 µM (active).
`N#CC(C#N)=Cc1ccc(O)c(O)c1` [TYRPHOSTIN 23]: the IC50 is 4.22 µM (active) in experiment [23]; 9.97 µM (active) in [24]; > 100 µM (inactive) in [26]; > 20 µM (inactive) in [27]; 3.78 µM (active) in experiment [28]; > 20 µM (inactive) in experiment [29]. In addition, the IC50 in experiment [30] was > 20 µM (inactive); in experiment [31], 6.74 µM (inactive); in experiment [32], > 20 µM (inactive); in [33], > 20 µM (inactive); in experiment [34], > 20 µM (inactive). Further, the figures for the half-maximal activity concentration (AC50) (in experiment [25]; at Cytochrome P450 2C19; on Cytochrome P450 2D6) were 10.8 µM (active), 15.8 µM (inconclusive) and 20 µM (inconclusive), respectively.
